Laboratory results published in patent publication US6936736B2, “Amide derivative” (Sumitomo Manufacturing Company Limited, priority 1997, dated 2005).

Key:
[1] = system: constant white light-induced retinal damage; assay: Experiment 1: protective effect against constant white light-induced retinal damage (ERG a-wave), intraperitoneal administration; format: in vivo, Male Wistar rats; details: rats, 50 mg/kg intraperitoneally twice, in 0.5% methylcellulose; ERG a-wave amplitude after two days constant light
Excerpt: Retinal outer nuclear cells have been known to be degenerated by the constant white light exposure to albino rats (L. M. Rapp, et al., New York: Plenum, 135 (1980)). Effectiveness of the compounds of formula 1, 2 or 3 or pharmaceutical acceptable salts thereof can be evaluated by their protective action against constant light exposure-induced retinal degeneration in rats. The present invention is embodied by the following experiment.
(§1) Pharmacological Effect Against Constant White Light-induced Retinal Damage
(§2) Male Wistar rats (7 weeks old, Charles River Japan Inc.) were purchased and maintained in cyclic light/dark environment (8:00-20:00/light term) for one week, and then placed within the apparatus for constant white light exposure for two days. The constant white light exposure apparatus is a covered breeding box of 1020 mm in length, 425 mm in width, 520 mm in height, which is made of acryl boards and of which all inner side are covered with mirrors. Light was continuously irradiated all the day long (24 hours) using white fluorescent lamp attached to the ceiling of the apparatus. The average illuminance in the apparatus was 174.2 foot candle. After two days in the apparatus, the rats were moved to a darkroom and dark adapted for 1-4 hours. The rats were anesthetized with pentobarbital and placed in a stereotaxic frame. After topical mydriatica was given and electrodes were put on corneal surface, center of the forehead and the lower part of the lobe, the response in active potential of retina to the flash stimulation with fixed energy was determined from the recorded ERG (electroretinogram). The damage of retina was evaluated by the decrease in the amplitude of ERG a-wave which originated from retinal outer nuclear cells (photoreceptors). Test compounds were intraperitoneally injected just before placing the rats into the constant light exposure apparatus and at the same time on the next day to investigate its protective effect.
According to the experimental procedure described above, each test compound in the present invention, which was suspended or dissolved in 0.5% methylcellulose (MC) solution, was intraperitoneally administered twice to three rats in a group at the dose of 50 mg/kg. In the same way, 0.5% MC solution was intraperitoneally administered to the rats in MC group. The rats maintained in 12 hours cyclic light/dark environment were used for normal control group. The protection by the compounds against the retinal damage was represented as % recovery value, and the results were shown in Table 1. % recovery=(x−z)÷(y−z)×100 • x : a-wave amplitude in test compound group • y : a-wave amplitude in normal control group • z : a-wave amplitude in MC group

[2] = system: constant white light-induced retinal damage; assay: Experiment 3: protective effect against constant white light-induced retinal damage (ERG a-wave), eye drops, several concentrations; format: in vivo; details: rats, 50 μl per once to both eyes
Excerpt: as §2
(§3) The protective effect of the compound of Examples by administration of eye drops was tested by the same method as Experiment 1. The tested compounds were administered immediately before rats were placed within the apparatus for constant white light exposure. Further, the eye drops were administered 3, 6, 9 and 24 hours after and the effect was evaluated.
as §1
The compound of Example 50 was further tested by the same method as Experiment 2.
The compound of the present invention was dissolved in 0.5% aqueous methylcellulose (MC) solution and each 50 μl of the solution per once was dropped to both eyes of 5 rats, according to the method of Experiment 1. In the same way, 0.5% MC solution was dropped to eyes of the rats in MC group. The rats maintained in 12 hours cyclic light/dark environment were used for normal control group.

[3] = system: constant white light-induced retinal damage; assay: Experiment 2: protective effect against constant white light-induced retinal damage (ERG a-wave), administration of eye drops; format: in vivo; details: rats, 50 μl per once to both eyes, at 0, 3, 6, 9 and 24 hours
Excerpt: as §2, §1, §3
The compounds of the present invention were dissolved in 0.5% aqueous methylcellulose (MC) solution and each 50 μl of the solution per once was dropped to both eyes of 5 rats, according to the method of Experiment 1. In the same way, 0.5% MC solution was dropped to eyes of the rats in MC group.
The rats maintained in 12 hours cyclic light/dark environment were used for normal control group.

For `CC(C)(C)NC(=O)c1ccc(F)cc1` [Example 6, N-t-Butyl-4-fluorobenzamide], which “% recovery (Mean ± S.E.M.)” value [1] is on record?
The value was 80.1 ± 8.9%.

How did the “% recovery (Mean ± S.E.M.)” value ([2]; eye drops 3 mg/ml in 0.5% MC) turn out when `CC(C)(C)NC(=O)c1cccc[n+]1[O-]` [Example 50, N-t-butyl-1-oxide-2-pyridinecarboxamide] was run?
The value was 2.3 ± 3.8%.

And the “% recovery (Mean ± S.E.M.)” value ([2]; eye drops 10 mg/ml in 0.5% MC)?
The value was 6.9 ± 5.7%.

What about the “% recovery (Mean ± S.E.M.)” value ([2]; eye drops 30 mg/ml in 0.5% MC, ** p < 0.01 vs solvent only (Dunnett)) of the same compound?
Its value is 17.4 ± 3.9** %.

And the “% recovery (Mean ± S.E.M.)” value ([2]; eye drops 60 mg/ml in 0.5% MC, ** p < 0.01 vs solvent only (Dunnett))?
Its value is 35.6 ± 2.7** %.

What about the “% recovery (Mean ± S.E.M.)” value ([3]; eye drops 10 mg/ml in 0.5% MC) of the same compound?
The value was 19.1 ± 7.5%.

How did the “% recovery (Mean ± S.E.M.)” value [1] turn out when `CC(C)(CO)NC(=O)c1ccc(Cl)cn1` [Example 47, N-(2-Hydroxy-1,1-dimethylethyl)-5-chloro-2-pyridinecarboxamide] was run?
The value was 58.2 ± 2.7%.

How did the “% recovery (Mean ± S.E.M.)” value ([3]; eye drops 1.2 mg/ml in 0.5% MC) turn out when `CC(C)(C)NC(=O)c1cc(F)ccc1F` [Example 25, N-t-Butyl-2,5-difluorobenzamide] was run?
The value was 16.2 ± 3.2%.

`CC(C)(C)NC(=O)c1ccc(Br)cc1F` [Example 49, N-t-butyl-4-bromo-2-fluorobenzamide] was tested. Which “% recovery (Mean ± S.E.M.)” value ([3]; eye drops 0.4 mg/ml in 0.5% MC) did it give?
The value was 5.1 ± 1.8%.

With `CC(C)(C)NC(=O)c1ccc(Cl)cn1` [Example 40, N-t-Butyl-5-chloro-2-pyridinecarboxamide] as the compound, how does the “% recovery (Mean ± S.E.M.)” value [1] read?
The value was 82.3 ± 25.6%.

What does the source list for `CC(C)(C)NC(=O)c1ccc(F)cc1F` [Example 1, N-t-Butyl-2,4-difluorobenzamide]?
% recovery (Mean ± S.E.M.) [1]: 95.5 ± 12.3%; % recovery (Mean ± S.E.M.) ([3]; eye drops 2 mg/ml in 0.5% MC): 11.6 ± 2.6%

Which “% recovery (Mean ± S.E.M.)” value [1] does the source give for `CC(C)(CO)NC(=O)c1ccc(F)cc1F` [Example 27, N-(2-Hydroxy-1,1-dimethylethyl)-2,4-difluorobenzamide] here?
Its value is 45.7 ± 10.1%.

For `CC(C)(C)NC(=O)c1ccccc1F` [Example 48, N-t-butyl-2-fluorobenzamide], which “% recovery (Mean ± S.E.M.)” value ([3]; eye drops 3.2 mg/ml in 0.5% MC) is on record?
The value was 15.0 ± 3.7%.
